We go through one compound from patent US20260029420A1, “ANTI-CB2 ANTIBODIES AND THEIR USE IN A FLOW CYTOMETRY ASSAY TO MEASURE CELL SURFACE CB2 EXPRESSION” (Hoffmann-La Roche Inc., priority 2022, published 2026).

For experiment [1], the target named is T1, CB2 (Homo sapiens, UniProt P34972).
T1 construct: measured in whole blood samples from nine different healthy human volunteers of working-age; endogenous in cells; host or cells: B-cells (and basophils and other leukocytes) in human whole blood
The experiment is described as follows: Phase I clinical trial CB2 target engagement on B-cells in healthy volunteers. The experiment is classed as in vivo. Particulars: for time of nadir (lowest CB2 surface expression) post-dose: single oral dose. The protocol: FIG. 13: Arithmetic Mean (+SD) Percentage Change-from-Baseline (CFB) of CB2-Receptor Target Engagement on B-cells in Blood versus Time Following Single Oral Dose Administration of 0.75 mg to 300 mg RG7774 in the Fasted State (n=6 on active drug vs 2 on placebo per dose level).
FIG. 14: Arithmetic Mean (+SD) Percentage Change-from-Baseline (CFB) of CB2-Receptor Target Engagement on B-cells in Blood versus Time Following Single Oral Dose Administration of 100 mg RG7774 in fasted and fed state.
FIG. 15: Arithmetic Mean (+SD) Percentage Change-from-Baseline (CFB) of CB2-Receptor Target Engagement on B-cells in Blood versus Time Following Multiple Oral Dose Administration of 20 mg to 300 mg RG7774 once daily for 14 Days.
The clinical utility of the newly developed CB2 flow cytometry assay as a measure for target engagement in a clinical setting was confirmed by its successful implementation in a phase I clinical trial in healthy volunteers. In the clinical setting B/T-cell ratio was not used as it introduced higher variability relative to the baseline normalized B-cell data alone.
In a first step, oral administration of a single ascending dose (SAD) of RG7774 in the range between 0.75 mg and 300 mg in the fasted state was assessed. Following oral administration of RG774, the onset of CB2 internalization was rapid, with the nadir (lowest CB2 surface expression) achieved at 4 hours post-dose for doses below 10 mg RG7774, and at 1 hour post-dose for doses at 10 mg to 30 mg RG7774 (FIG. 13). For the two highest tested doses of 100 mg and 300 mg RG7774, the time to reach the nadir shifted with the area under the effect curve increasing. […] This indicates successful target engagement of RG7774 upon oral dosing. Furthermore, the assay was utilized to inform stopping rules for dose escalation in the SAD part of the first-in-human (FIH) trial.
In a third part of the FIH study, the effects of multiple ascending doses (MAD) of 20 mg to 300 mg RG7774 administered once daily over 14 days on CB2 internalization were investigated (FIG. 15).

The target in experiment [2] is T1, CB2. The experiment is described as follows: CB2 internalization flow cytometry assay in whole blood of working-age healthy participants. The experiment is classed as cell-based. The conditions noted are these: for pIC50: B-cells. The protocol: FIG. 7: IC50 determination for CB2 internalization on B-cells in response to RG7774 in whole blood of healthy participants. Human whole blood was incubated with RG7774 for 1 hour at 37° C. followed by incubation with the anti-human CB2 antibody 1/622. The expression of CB2 on the surface of B-cells was analyzed using a lineage marker mix specific for B-cells (CD45^+ CD3^− CD14^− CD19^+) and T-cells (CD45^+ CD3^+ CD14^−). The B/T-cell CB2 MFI ratio was calculated and normalized to baseline. 0 μM was set as 100% baseline receptor expression.
The CB2 is member of the G-protein coupled receptor family which upon ligand (agonist) binding can respond by internalization of the receptor into the endosomal compartment of the cell, thereby removing the respective receptor form the cell surface and initiating downstream signaling effects (Calebiro, D. et al. Best Pract Res Clin Endocrinol Metab 2018:32 (2):83-91). Such changes in cell surface expression of CB2 on B-cells in response to the treatment with the CB2 agonist RG7774 were measured in whole blood samples from nine different healthy human volunteers of working-age. Whole blood samples were treated with eight compound concentrations in duplicates to determine IC50 of RG7774 using a newly developed flow cytometry assay.
Na-Heparin whole blood samples were incubated in a 96-well plate with RG7774 for 1 hour at 37° C. in a humidified incubator with 5% CO2. Samples were harvested from the 96-well plate and 100 μl were transferred to labeled 5 ml Polystyrene Round Bottom Tubes (Becton Dickinson, Cat #352052). The unlabeled anti-CB2 antibody clone 1/622 was diluted to 50μg/ml with cell staining buffer (BioLegend, Cat #420201). 100 μl diluted anti-CB2 antibody was added to each tube and incubated for 30 minutes at 4° C. For the red blood cell lysis 10× BD PharmLyse lysing buffer (Becton Dickinson, Cat #55899) was diluted to 1× with distilled water and prewarmed to approximately 20° C. After the CB2 antibody incubation 2 ml of prewarmed 1× BD PharmLyse lysing buffer was added to each tube, mixed and incubated for 15 minutes at approximately 20° C. After the incubation, the tubes were centrifuged for 5 minutes at 250×g and 4° C. The supernatant was removed completely, cells were washed two times with cold cell staining buffer and supernatant removed completely after the centrifugation. Human FcR Blocking Reagent (Miltenyi Biotech, Cat #130-059-901) was diluted according to the package insert instructions with cold cell staining buffer. To each sample 50 μl was added, mixed and incubated for 10 minutes at 4° C. The secondary antibody Goat F(ab′)2 Anti-Mouse IgG3 PE (Southern Biotech, Cat #1102-09) was diluted 1:25 in cold cell staining buffer. To each sample 50 μl was added, mixed and incubated for 30 minutes at 4° C. in the dark. […]
For determination of cell surface expression of CB2 on B-cells, median fluorescent intensity (MFI) was analyzed by gating around the CD45^+ CD3^− CD14^− CD19^+ B-cells (see gating strategy in FIG. 6A to FIG. 6E) and acquiring a minimum of 2000 events in this gate (FIG. 6F). With the lineage marker mix other cell populations like T-cells (CD45^+ CD3^+ CD14^−), Monocytes (CD45^+ CD3^− CD14^+), Basophils (CD45^+ CD3^− CD14^− CD19^− CD193^+ IgE^+), NK cells (CD45^+ CD3^− CD14^− CD19^− CD193^− IgE^− CD16^+ CD56^+), Eosinophils (CD45^+ CD16^−) and Neutrophils (CD45^+ CD16^+) could be analyzed.

The mark [3] stands for this setting: 20 mg to 300 mg once daily over 14 days.

Each structure is given as a SMILES string. pIC50: −log10 of the molar value. “And” between values parts separate entries of the source, which are not always exact repeats. Equal values may be shown once.

T1 sequence (P34972 whole entry): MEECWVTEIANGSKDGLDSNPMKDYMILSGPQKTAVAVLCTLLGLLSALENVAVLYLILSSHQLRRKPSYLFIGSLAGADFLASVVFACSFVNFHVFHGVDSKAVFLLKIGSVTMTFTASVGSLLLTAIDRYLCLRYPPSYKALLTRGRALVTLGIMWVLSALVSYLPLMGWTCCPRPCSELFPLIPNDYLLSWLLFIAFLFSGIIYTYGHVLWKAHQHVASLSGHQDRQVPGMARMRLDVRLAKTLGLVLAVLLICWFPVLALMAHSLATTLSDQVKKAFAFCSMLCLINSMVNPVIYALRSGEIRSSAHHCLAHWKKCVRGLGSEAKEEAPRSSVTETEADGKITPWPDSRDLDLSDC

As for `Cn1nnnc1Cn1nnc2c(N3CC[C@H](O)C3)nc(C(C)(C)C)nc21` [RG7774, (S)-1-[5-tert-Butyl-3-(1-methyl-1H-tetrazol-5-ylmethyl)-3H-[1,2,3]triazolo [4,5-d]pyrimidin-7-yl]-pyrrolidin-3-ol], the “desensitization of CB2 internalization” value on CB2 [1] (setting [3]) is on record as “no desensitization was observed”. Also, the “steady-state of PD effect” value at CB2 [1] (setting [3]) is on record as “steady-state was reached during the observation period”. The “impact of food consumption on the pharmacodynamic (PD) effects” value on CB2 [1] (100 mg single dose, fasted (n=8) vs fed (n=8)) was “no relevant impact”. The “time to reversal of reduction of CB2 surface receptor expression upon stopping the drug” value on CB2 [1] (after 14 days once daily, not yet fully reversed for the two highest doses) is reported as around 1 week. Moreover, the “extent of CB2 internalization (CB2 target engagement)” value on CB2 [1] (single ascending dose 0.75 mg to 300 mg, fasted) is reported as “increased dose-dependently”. Moreover, the “time of nadir (lowest CB2 surface expression) post-dose” value at CB2 [1] (fasted, doses at 10 mg to 30 mg) is 1 h; at CB2 [1] (fasted, doses below 10 mg) it was 4 h. Further, the “reduction of the CB2 cell surface expression” value is reported as “can also be detected” on CB2 [2] (Basophils (data not shown)); “has not been observed” at CB2 [2] (T-cells, Monocytes, NK-cells, Eosinophils and Neutrophils (data not shown)). In addition, on CB2 [2] (Healthy Participants (working-age), reference group), the “Fold change vs HPs of mean IC50 (CB2 on B-cells)” value was determined as 1. The negative logarithm of the IC50 (pIC50) at CB2 [2] (IC50, individual working-age healthy donors, whole blood 1 hour 37° C., B/T-cell CB2 MFI ratio) was 6.90 and 7.09 and 7.19 and 7.06 and 6.84; against CB2 [2] (Individual IC50 values, range over donors, healthy human participants), 6.84 to 7.19.
